Counter-ions that a name gives are not always drawn. Like-named read-outs stand apart in the source and are kept apart here. Each block holds one compound with its values, some of them ahead of it.
Tests used:
[1] = Acute gastral ulcerogenity; parameters: species or system male Sprague-Dawley rats; conditions: rat, in vivo, po
Description: 2. Acute gastral ulcerogenity
The investigation took place on 10 male Sprague-Dawley rats whose gastric mucous membrane had been sensitized by hunger stress. The body weight of the animals was between 200 and 300 g. While allowing free access to the drinking water, the feed was withdrawn from the animals 48 hours before administration of the test preparations until sacrifice of the animals. The rats were sacrificed 24 hours after oral substance administration, and the stomachs were removed, cleaned under running water and inspected for mucous membrane lesions. All macroscopically visible lesions were regarded as ulcers. The number of animals having ulcers was determined for each dose, and the UD50 values, i.e. the doses at which lesions were caused in 50% of the animals, were calculated from these figures by the method of Litchfield and Wilcoxon (J. Pharmacol. Exp. Ther. 96 (1949), p. 99).

adjuvant arthritis = test: Adjuvant arthritis (method of Pearson), reduction in the increase in paw volume; assay type: in vivo, male rats of a Wistar-Lewis strain; conditions: Rattus norvegicus, po; for inhibition in vivo at 50 mg/kg: 50 mg/kg p.o., once daily day 1 to day 5, rats; for inhibition in vivo at 12.5 mg/kg: * 12.5 mg/kg p.o.; for ED50: read-out: ED50 in adjuvant arthritis
Source text: 1. […] The experimental animals used were male rats of a Wistar-Lewis strain having a body weight between 130 and 200 g. […] The animals in a control group received only the vehicle. Each preparation and control group comprised 8 animals. The criterion for action was the percentage reduction in the increase in paw volume compared to that of the untreated control group.

in vivo = conditions: mouse, ip; for LD50 at 168 h: read-out: Acute toxicity LD50
Description: The LD50 values were determined by a standard method from the mortality occurring within 7 days in NMRI (Naval Medical Research Institute) mice (6 animals per dose) after a single intraperitoneal (i.p.) administration.

acetic acid stretching = test: Analgesic action: acetic acid stretching test; assay type: in vivo, female mice of a NMRI strain; conditions: Mus musculus, 0.25 h; oral dose of 158 mg/kg, mice; read-out: Animals relieved of pain in %
Description: The analgesic action of the compounds of the formula I according to the invention was tested by means of the acetic acid stretching test on mice by the method of R. Koster et al., Fed. Prod. 18 (1959), p. 412.
The experimental animals used were female mice of a NMRI strain having a body weight (BW) between 21 and 28 g. Groups of 12 animals each received 0.1 ml/10 g of BW of a 0.6% strength acetic acid solution injected intraperitoneally. The test substances were administered 30 minutes beforehand. Immediately after the injection of acetic acid, the animals were placed alone and the number of typical stretching movements occurring within 15 minutes were counted, which comprise a brief tensing of the stomach muscles including the flank parts and subsequent stretching of the rear body and at least one read extremity.
The test substances were administered orally in a volume of 10 ml/kg of BW in a 1% strength aqueous carboxymethylcellulose (CMC) suspension.

[2] = system: Adriamycin-induced inflammation; test: Antioxidative action: inhibition of Adriamycin (doxorubicin) induced inflammation; assay type: in vivo, male Sprague-Dawley rats; conditions: for Increase in paw volume: after 72 hours, control 390; for Protective effect against Adriamycin-induced tissue destruction (in words): rats, oral
Source text: 4. Antioxidative action According to current opinion, aggressive oxygen radicals, which are formed to excess during the chronic inflammation process and, as highly toxic inflammation mediators themselves, perpetually maintain the connective tissue destruction proceeding via irreversible lipid peroxidation of the cell membranes, participate prominently in the progressive course, caused by a number of factors, of rheumatoid arthritis and other inflammatory disorders. As a result, antioxidatively active pharmaceuticals which are capable of deactivating these extremely cytotoxic oxygen radicals should allow specific intervention in the chronic course of the inflammation. A suitable animal model for this type of tissue destruction caused by oxygen radicals is Adriamycin (doxorubicin) induced inflammation in rats. The investigations were carried out by the method of D. M. Siegel et al. (Inflammation 4 (1980), p. 233) on male Sprague-Dawley rats having a body weight of between 200 and 230 g in groups each with 7 animals, which received 0.1 mg of Adriamycin, dissolved in 0.1 ml of 0.9% strength sodium chloride solution, by subcutaneous injection into the left rear paw. The increase in paw volume after 72 hours was determined by plethysmography measurement as a measure of the degree of inflammation. The test preparations were administered orally once daily on the 4 successive days, starting with the day of Adriamycin injection, in a 1% strength aqueous carboxymethylcellulose suspension.

5-lipoxygenase = target: T1, 5-lipoxygenase (Homo sapiens, UniProt P09917); test: Inhibition of 5-lipoxygenase: LTB4 formation in isolated polymorphonuclear human granulocytes; assay type: cell-based; conditions: ionophor A 23 187, LTB4 by HPLC, 37° C.
T1 construct: in-vitro experiments on isolated polymorphonuclear human granulocytes; endogenous in cells; host or cells: isolated human polymorphonuclear granulocytes
T1 sequence (P09917 1-674): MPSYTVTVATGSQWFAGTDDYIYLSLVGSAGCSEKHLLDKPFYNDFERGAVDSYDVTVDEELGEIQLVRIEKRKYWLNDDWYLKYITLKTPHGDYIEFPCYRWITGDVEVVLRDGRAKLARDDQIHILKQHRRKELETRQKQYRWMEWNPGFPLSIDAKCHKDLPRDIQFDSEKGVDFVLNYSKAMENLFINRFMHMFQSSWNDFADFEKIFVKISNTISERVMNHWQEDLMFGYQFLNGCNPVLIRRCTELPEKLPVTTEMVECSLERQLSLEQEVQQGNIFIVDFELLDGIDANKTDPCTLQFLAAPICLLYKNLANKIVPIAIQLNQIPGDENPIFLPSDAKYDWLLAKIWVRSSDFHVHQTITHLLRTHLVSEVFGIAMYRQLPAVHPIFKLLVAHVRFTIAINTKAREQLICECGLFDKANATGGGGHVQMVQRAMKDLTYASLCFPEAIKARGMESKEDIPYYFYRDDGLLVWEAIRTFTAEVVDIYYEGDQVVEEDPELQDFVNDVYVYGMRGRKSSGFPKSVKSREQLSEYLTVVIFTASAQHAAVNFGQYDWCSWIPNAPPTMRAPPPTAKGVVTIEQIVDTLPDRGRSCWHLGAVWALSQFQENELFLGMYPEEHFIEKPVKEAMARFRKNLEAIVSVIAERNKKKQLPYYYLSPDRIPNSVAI
Description: 5. Inhibition of 5-lipoxygenase
The inhibitory action of the compounds according to the invention of 5-lipoxygenase-catalysed degradation of arachidonic acid was determined, as usual, in in-vitro experiments on isolated polymorphonuclear human granulocytes. To this purpose, the cells were incubated at 37° C. with the particular test preparation and the formation of pro-inflammatoryleukotriene B4 (LTB4) was induced after 5 minutes using the calcium ionophor A 23 187 (Calbiochem GmbH, Frankfurt/Main, FRG, Biochemical and Immunochemical Catalog 1985, p. 284). The amount of LTB4 liberated over a period of 10 minutes was determined quantitatively with the aid of a UV detector after separation by means of high-pressure liquid chromatography (HPLC).

[3] = single i.p., NMRI mice, mortality within 7 days
[4] = 50 mg/kg p.o., *Significance p <0.05

SMILES: CN(Cc1ccccc1)C1=NN=C(c2cc(C(C)(C)C)c(O)c(C(C)(C)C)c2)CS1 [Example 13]
TD50 at 24 h [1]: > 200 mg/kg
inhibition in vivo at 50 mg/kg (adjuvant arthritis): 71%
LD50 at 168 h (in vivo): 600 to 1200 mg/kg
responders at 158 mg/kg (acetic acid stretching): 42%

SMILES: CC1CCN(C2=NN=C(c3cc(C(C)(C)C)c(O)c(C(C)(C)C)c3)CS2)CC1 [Example 2, 5-(3,5-di-tert.butyl-4-hydroxyphenyl)-2-(4-methylpiperidino)-6H-1,3,4-thiadiazine hydrobromide]
TD50 at 24 h [1]: 100 mg/kg
inhibition in vivo at 50 mg/kg (adjuvant arthritis): 62%
LD50 at 168 h (in vivo; [3]): 600 to 1200 mg/kg
responders at 158 mg/kg (acetic acid stretching): 75%

SMILES: CNC1=NN=C(c2cc(C(C)(C)C)c(O)c(C(C)(C)C)c2)CS1 [Example 4, 5-(3,5-di-tert.butyl-4-hydroxyphenyl)-2-methylamino-6H-1,3,4-thiadiazine-hydrochloride]
TD50 at 24 h [1]: 100 to 200 mg/kg
inhibition in vivo at 50 mg/kg (adjuvant arthritis): 81%
LD50 at 168 h (in vivo; [3]): 300 to 600 mg/kg
responders at 158 mg/kg (acetic acid stretching): 83%

SMILES: CC1SC(N(C)C)=NN=C1c1cc(C(C)(C)C)c(O)c(C(C)(C)C)c1 (stereo not shown) [Example 22]
TD50 at 24 h [1]: > 200 mg/kg
inhibition in vivo at 12.5 mg/kg (adjuvant arthritis; rats): 84%
LD50 at 168 h (in vivo): 600 to 1200 mg/kg
responders at 158 mg/kg (acetic acid stretching): 92%

SMILES: CC(C)(C)c1cc(C2=NN=C(NCc3ccccc3)SC2)cc(C(C)(C)C)c1O [Example 12]
TD50 at 24 h [1]: > 200 mg/kg
inhibition in vivo at 50 mg/kg (adjuvant arthritis): 65%
LD50 at 168 h (in vivo): 600 to 1200 mg/kg

SMILES: C=CCNC1=NN=C(c2cc(C(C)(C)C)c(O)c(C(C)(C)C)c2)CS1 [Example 14]
TD50 at 24 h [1]: > 200 mg/kg
Protective action ([2]; 25 mg/kg p.o.): 36%
Increase in paw volume ([2]; 25 mg/kg p.o.): 250 µL
Protective action [2, 4]: 59%
Increase in paw volume ([2]; 50 mg/kg p.o.): 160 µL
Protective effect against Adriamycin-induced tissue destruction (in words) [2]: strong, dose-dependent protective effect
inhibition in vivo at 50 mg/kg (adjuvant arthritis): 75%
LD50 at 168 h (in vivo): 600 to 1200 mg/kg
responders at 158 mg/kg (acetic acid stretching): 67%

SMILES: COc1ccc2cc(C(C)C(=O)O)ccc2c1 (stereo not shown) [naproxen, 2-(6-methoxy-2-naphthyl)-propionic acid, reference compound]
Protective effect against Adriamycin-induced tissue destruction (in words) [2]: ineffective
ED50 (adjuvant arthritis): 17.5 mg/kg
inhibition in vivo at 50 mg/kg (adjuvant arthritis): 55%

SMILES: CCCN(CCC)C1=NN=C(c2cc(C(C)(C)C)c(O)c(C(C)(C)C)c2)CS1 [Example 11]
TD50 at 24 h [1]: 100 to 200 mg/kg
inhibition in vivo at 50 mg/kg (adjuvant arthritis): 54%
LD50 at 168 h (in vivo): > 1200 mg/kg

SMILES: CN1CCN(C2=NN=C(c3cc(C(C)(C)C)c(O)c(C(C)(C)C)c3)CS2)CC1 [Example 20]
TD50 at 24 h [1]: 200 mg/kg
inhibition in vivo at 50 mg/kg (adjuvant arthritis): 72%
LD50 at 168 h (in vivo): 150 to 300 mg/kg

IC50 (5-lipoxygenase): 10 µM
SMILES: CC(C)(C)c1cc(C2=NN=C(N3CCCC3)SC2)cc(C(C)(C)C)c1O [Example 17]

SMILES: CCN(C1=NN=C(c2cc(C(C)(C)C)c(O)c(C(C)(C)C)c2)CS1)C(C)C [Example 10]
TD50 at 24 h [1]: 200 mg/kg
inhibition in vivo at 50 mg/kg (adjuvant arthritis): 82%
LD50 at 168 h (in vivo): > 1200 mg/kg

SMILES: CCN(CC)C1=NN=C(c2cc(C(C)(C)C)c(O)c(C(C)(C)C)c2)CS1 [Example 9]
TD50 at 24 h [1]: > 200 mg/kg
inhibition in vivo at 12.5 mg/kg (adjuvant arthritis; rats): 55%
LD50 at 168 h (in vivo): 600 to 1200 mg/kg

SMILES: Cc1cc(C2=NN=C(N(C)C)SC2)cc(C(C)(C)C)c1O [Example 3, 5-(5-tert.butyl-3-methyl-4-hydroxyphenyl)-2-dimethylamino-6H-1,3,4-thiadiazine hydrobromide]
TD50 at 24 h [1]: > 200 mg/kg
inhibition in vivo at 50 mg/kg (adjuvant arthritis): 58%
IC50 (5-lipoxygenase): 4 µM
LD50 at 168 h (in vivo; [3]): 600 to 1200 mg/kg
responders at 158 mg/kg (acetic acid stretching): 42%

SMILES: CN(C)C1=NN=C(c2cc(C(C)(C)C)c(O)c(C(C)(C)C)c2)CS1 [Example 1, 5-(3,5-di-tert.butyl-4-hydroxyphenyl)-2-dimethylamino-6H-1,3,4-thiadiazinehydrobromide]
TD50 at 24 h [1]: 200 mg/kg
selectivity ratio [1]: ~33
Protective action ([2]; 25 mg/kg p.o.): 10%
Increase in paw volume ([2]; 25 mg/kg p.o.): 350 µL
Protective action [2, 4]: 69%
Increase in paw volume ([2]; 50 mg/kg p.o.): 120 µL
Protective effect against Adriamycin-induced tissue destruction (in words) [2]: strong, dose-dependent protective effect
inhibition in vivo at 12.5 mg/kg (adjuvant arthritis; rats): 69%
ED50 (adjuvant arthritis; from the dose/action curve, p.o., rats): 6 mg/kg
IC50 (5-lipoxygenase): 9 µM
selectivity ratio (in vivo; LD50 (i.p. mice) divided by ED50 (adjuvant arthritis, rats), read-out: LD50/ED50 quotient): ~150
LD50 at 168 h (in vivo): 600 to 1200 mg/kg
responders at 158 mg/kg (acetic acid stretching): 83%

SMILES: CCN(C)C1=NN=C(c2cc(C(C)(C)C)c(O)c(C(C)(C)C)c2)CS1 [Example 8]
TD50 at 24 h [1]: > 200 mg/kg
inhibition in vivo at 12.5 mg/kg (adjuvant arthritis; rats): 61%
IC50 (5-lipoxygenase): 13 µM
LD50 at 168 h (in vivo): 300 to 600 mg/kg
responders at 158 mg/kg (acetic acid stretching): 92%

SMILES: CC(C)(C)c1cc(C2=NN=C(N3CCCCC3)SC2)cc(C(C)(C)C)c1O [Example 18]
TD50 at 24 h [1]: 100 mg/kg
inhibition in vivo at 50 mg/kg (adjuvant arthritis): 74%
LD50 at 168 h (in vivo): > 1200 mg/kg

Reference: patent US4940790A, “5-(3-alkyl-5-tert.butyl-4-hydroxyphenyl)-2-amino-6H-1,3,4-thiadiazines” (Hoechst Aktiengesellschaft, priority 1987, dated 1990)
